Measurements reported in US10160747B2, “Compounds and methods for kinase modulation, and indications therefor” (Plexxikon Inc., priority 2016, dated 2018).

Molecular target: T1, FLT3-ITD (Homo sapiens, UniProt P36888)
T1 sequence (P36888 1-993): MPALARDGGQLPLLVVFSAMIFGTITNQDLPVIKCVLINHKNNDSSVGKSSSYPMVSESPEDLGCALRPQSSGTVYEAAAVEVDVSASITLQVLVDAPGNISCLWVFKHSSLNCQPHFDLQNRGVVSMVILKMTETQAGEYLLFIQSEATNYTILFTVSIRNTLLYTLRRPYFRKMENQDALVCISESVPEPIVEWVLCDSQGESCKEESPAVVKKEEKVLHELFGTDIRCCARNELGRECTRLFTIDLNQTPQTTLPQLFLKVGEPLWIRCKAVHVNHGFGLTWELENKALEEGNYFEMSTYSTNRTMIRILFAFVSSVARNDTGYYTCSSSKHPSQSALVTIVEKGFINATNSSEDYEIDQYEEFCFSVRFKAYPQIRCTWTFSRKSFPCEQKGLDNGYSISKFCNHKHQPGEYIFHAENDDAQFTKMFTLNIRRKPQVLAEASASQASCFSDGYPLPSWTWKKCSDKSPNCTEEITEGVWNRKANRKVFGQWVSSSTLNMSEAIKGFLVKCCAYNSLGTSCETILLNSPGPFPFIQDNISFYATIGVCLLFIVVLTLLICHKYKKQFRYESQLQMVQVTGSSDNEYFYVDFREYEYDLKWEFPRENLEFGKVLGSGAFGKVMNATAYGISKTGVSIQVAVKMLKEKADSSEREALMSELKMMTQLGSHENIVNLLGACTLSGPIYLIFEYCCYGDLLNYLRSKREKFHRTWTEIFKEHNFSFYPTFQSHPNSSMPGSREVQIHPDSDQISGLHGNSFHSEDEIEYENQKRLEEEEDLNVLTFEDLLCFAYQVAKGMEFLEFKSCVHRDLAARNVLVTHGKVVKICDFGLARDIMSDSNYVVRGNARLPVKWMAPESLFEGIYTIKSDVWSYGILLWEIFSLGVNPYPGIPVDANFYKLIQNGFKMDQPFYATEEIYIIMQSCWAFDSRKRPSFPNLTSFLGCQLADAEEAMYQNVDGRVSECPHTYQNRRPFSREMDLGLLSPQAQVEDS
Test: FLT3-ITD recombinant enzyme kinase assay (AlphaScreen)
Format: biochemical
Details: 8 pt; read-out: FLT3_ITD 8 pt: IC50
How it was run: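 AlphaScreen proximity signal at 580 nm, from PY20 acceptor and streptavidin donor beads, measures tyrosine phosphorylation of 30 nM biotin-poly(Glu4-Tyr) peptide by recombinant kinase. ATP: 10 μM (FLT3 mutants), 100 μM (c-KIT). IC50 from loss of signal.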

Row | SMILES | IC50
1 | O=C(Cc1ccc(-c2cnc(Nc3cnn4ccccc34)nc2)cc1F)Nc1cncc(C(F)(F)F)c1 [Compound P-0058, 2-[2-fluoro-4-[2-(pyrazolo[1,5-a]pyridin-3-ylamino)pyrimidin-5-yl]phenyl]-N-[5-(trifluoromethyl)-3-pyridyl]acetamide] | 0.0001 to 10 µM
2 | O=C(Cc1ccc(-c2cnc3c(c2)C2(CC2)C(=O)N3)cc1F)Nc1cncc(C(F)(F)F)c1 [Compound P-0064, 2-(2-fluoro-4-(2′-oxo-1′,2′-dihydrospiro[cyclopropane-1,3′-pyrrolo[2,3-b]pyridin]-5′-yl)phenyl)-N-(5-(trifluoromethyl)pyridin-3-yl)acetamide] | 0.0001 to 10 µM
3 | Cc1ncc(NC(=O)Cc2ccc(-c3cnc(Nc4cnn5ccccc45)nc3)cc2F)cc1C(F)(F)F [Compound P-0065, 2-(2-fluoro-4-(2-(pyrazolo[1,5-a]pyridin-3-ylamino)pyrimidin-5-yl)phenyl)-N-(6-methyl-5-(trifluoromethyl)pyridin-3-yl)acetamide] | 0.0001 to 10 µM
4 | CCC(=O)c1c[nH]c2ncc(-c3ccc(CC(=O)Nc4cncc(C(F)(F)F)c4)c(F)c3)cc12 [Compound P-0068, 2-[2-fluoro-4-(3-propanoyl-1H-pyrrolo[2,3-b]pyridin-5-yl)phenyl]-N-[5-(trifluoromethyl)-3-pyridyl]acetamide] | 0.0001 to 10 µM
5 | O=C(Cc1ccc(-c2cnc(Nc3cnn4ccccc34)nc2)c(F)c1)Nc1cncc(C(F)(F)F)c1 [Compound P-0071, 2-[3-fluoro-4-[2-(pyrazolo[1,5-a]pyridin-3-ylamino)pyrimidin-5-yl]phenyl]-N-[5-(trifluoromethyl)-3-pyridyl]acetamide] | 0.0001 to 10 µM
6 | O=C(Cc1ccc(-c2cnc(Nc3cnn4ccccc34)nc2)cc1)Nc1cncc(C(F)(F)F)c1 [Compound P-0074, 2-[4-[2-(pyrazolo[1,5-a]pyridin-3-ylamino)pyrimidin-5-yl]phenyl]-N-[5-(trifluoromethyl)-3-pyridyl]acetamide] | 0.0001 to 10 µM
7 | O=C(Cc1cc(F)c(-c2cnc(Nc3cnn4ccccc34)nc2)cc1F)Nc1cncc(C(F)(F)F)c1 [Compound P-0075, 2-[2,5-difluoro-4-[2-(pyrazolo[1,5-a]pyridin-3-ylamino)pyrimidin-5-yl]phenyl]-N-[5-(trifluoromethyl)-3-pyridyl]acetamide] | 0.0001 to 10 µM
8 | Cc1ncc(NC(=O)Cc2ccc(-c3cnc(Nc4cnn(C)c4C)nc3)cc2F)cc1C(F)(F)F [Compound P-0076, 2-[4-[2-[(1,5-dimethylpyrazol-4-yl)amino]pyrimidin-5-yl]-2-fluoro-phenyl]-N-[6-methyl-5-(trifluoromethyl)-3-pyridyl]acetamide] | 0.0001 to 10 µM
9 | Cc1nn(C)cc1Nc1ncc(-c2ccc(CC(=O)Nc3cnc(C)c(C(F)(F)F)c3)c(F)c2)cn1 [Compound P-0077, 2-[4-[2-[(1,3-dimethylpyrazol-4-yl)amino]pyrimidin-5-yl]-2-fluoro-phenyl]-N-[6-methyl-5-(trifluoromethyl)-3-pyridyl]acetamide] | 0.0001 to 10 µM
10 | Cn1cnc(Nc2ncc(-c3cc(F)c(CC(=O)Nc4cncc(C(F)(F)F)c4)cc3F)cn2)c1 [Compound P-0078, 2-(2,5-difluoro-4-(2-((1-methyl-1H-imidazol-4-yl)amino)pyrimidin-5-yl)phenyl)-N-(5-(trifluoromethyl)pyridin-3-yl)acetamide] | 0.0001 to 10 µM
11 | Cn1cc(Nc2ncc(-c3ccc(CC(=O)Nc4cncc(C5CC5)c4)c(F)c3)cn2)cn1 [Compound P-0081, N-(5-cyclopropyl-3-pyridyl)-2-[2-fluoro-4-[2-[(1-methylpyrazol-4-yl)amino]pyrimidin-5-yl]phenyl]acetamide] | 0.0001 to 10 µM
12 | Cn1cc(Nc2ncc(-c3ccc(CC(=O)Nc4cc(C(F)(F)F)ccn4)c(F)c3)cn2)cn1 [Compound P-0082, 2-[2-fluoro-4-[2-[(1-methylpyrazol-4-yl)amino]pyrimidin-5-yl]phenyl]-N-[4-(trifluoromethyl)-2-pyridyl]acetamide] | 0.0001 to 10 µM
13 | Cn1cc(Nc2ncc(-c3ccc(CC(=O)Nc4ccnc(C(F)(F)F)c4)c(F)c3)cn2)cn1 [Compound P-0083, 2-[2-fluoro-4-[2-[(1-methylpyrazol-4-yl)amino]pyrimidin-5-yl]phenyl]-N-[2-(trifluoromethyl)-4-pyridyl]acetamide] | 0.0001 to 10 µM
14 | Cn1cc(Nc2ncc(-c3ccc(CC(=O)Nc4cncc(C(F)(F)F)c4)c(F)c3)cn2)cn1 [Compound P-0084, 2-[2-fluoro-4-[2-[(1-methylpyrazol-4-yl)amino]pyrimidin-5-yl]phenyl]-N-[5-(trifluoromethyl)-3-pyridyl]acetamide] | 0.0001 to 10 µM
15 | COc1cncc(NC(=O)Cc2ccc(-c3cnc(Nc4cnn(C)c4)nc3)cc2F)c1 [Compound P-0086, 2-[2-fluoro-4-[2-[(1-methylpyrazol-4-yl)amino]pyrimidin-5-yl]phenyl]-N-(5-methoxy-3-pyridyl)acetamide] | 0.0001 to 10 µM
16 | Cn1cc(Nc2ncc(-c3ccc(CC(=O)NCc4ccc(C(F)(F)F)nc4)c(F)c3)cn2)cn1 [Compound P-0087, 2-[2-fluoro-4-[2-[(1-methylpyrazol-4-yl)amino]pyrimidin-5-yl]phenyl]-N-[[6-(trifluoromethyl)-3-pyridyl]methyl]acetamide] | 0.0001 to 10 µM
17 | Cn1cc(Nc2ncc(-c3ccc(CC(=O)NCc4ccccn4)c(F)c3)cn2)cn1 [Compound P-0088, 2-[2-fluoro-4-[2-[(1-methylpyrazol-4-yl)amino]pyrimidin-5-yl]phenyl]-N-(2-pyridylmethyl)acetamide] | 0.0001 to 10 µM
18 | COc1ncc(NC(=O)Cc2ccc(-c3cnc(Nc4cnn(C)c4)nc3)cc2F)cc1C(F)(F)F [Compound P-0089, 2-[2-fluoro-4-[2-[(1-methylpyrazol-4-yl)amino]pyrimidin-5-yl]phenyl]-N-[6-methoxy-5-(trifluoromethyl)-3-pyridyl]acetamide] | 0.0001 to 10 µM

Results, then the compound that gave them:

Row | IC50 | SMILES
19 | 0.0001 to 10 µM | Cc1ncc(NC(=O)Cc2ccc(-c3cnc4[nH]cc(Cl)c4n3)cc2F)cc1C(F)(F)F [Compound P-0059, 2-[4-(7-chloro-5H-pyrrolo[2,3-b]pyrazin-2-yl)-2-fluoro-phenyl]-N-[6-methyl-5-(trifluoromethyl)-3-pyridyl]acetamide]
20 | 0.0001 to 10 µM | O=C(Cc1ccc(-c2cnc3[nH]cc(Cl)c3n2)cc1F)Nc1cnc(Cl)c(C(F)(F)F)c1 [Compound P-0060, 2-[4-(7-chloro-5H-pyrrolo[2,3-b]pyrazin-2-yl)-2-fluoro-phenyl]-N-[6-chloro-5-(trifluoromethyl)-3-pyridyl]acetamide]
21 | 0.0001 to 10 µM | O=C(Cc1ccc(-c2cnc3[nH]cc(Cl)c3n2)cc1F)Nc1cncc(C(F)(F)F)c1 [Compound P-0061, 2-[4-(7-chloro-5H-pyrrolo[2,3-b]pyrazin-2-yl)-2-fluoro-phenyl]-N-[5-(trifluoromethyl)-3-pyridyl]acetamide]
22 | 0.0001 to 10 µM | Cc1ncc(NC(=O)Cc2ccc(-c3cnc4[nH]cc(F)c4c3)cc2F)cc1C(F)(F)F [Compound P-0062, 2-[2-fluoro-4-(3-fluoro-1H-pyrrolo[2,3-b]pyridin-5-yl)phenyl]-N-[6-methyl-5-(trifluoromethyl)-3-pyridyl]acetamide]
23 | 0.0001 to 10 µM | CC(=O)c1c[nH]c2ncc(-c3ccc(CC(=O)Nc4cnc(C)c(C(F)(F)F)c4)c(F)c3)cc12 [Compound P-0063, 2-[4-(3-acetyl-1H-pyrrolo[2,3-b]pyridin-5-yl)-2-fluoro-phenyl]-N-[6-methyl-5-(trifluoromethyl)-3-pyridyl]acetamide]
24 | 0.0001 to 10 µM | Cc1ncc(NC(=O)Cc2ccc(-c3cnc4[nH]nc(C5CC5)c4c3)cc2F)cc1C(F)(F)F [Compound P-0066, 2-(4-(3-cyclopropyl-1H-pyrazolo[3,4-b]pyridin-5-yl)-2-fluorophenyl)-N-(6-methyl-5-(trifluoromethyl)pyridin-3-yl)acetamide]
25 | 0.0001 to 10 µM | Cc1ncc(NC(=O)Cc2ccc(-c3cnc4[nH]c(Cl)cc4c3)cc2F)cc1C(F)(F)F [Compound P-0067, 2-[4-(2-chloro-1H-pyrrolo[2,3-b]pyridin-5-yl)-2-fluoro-phenyl]-N-[6-methyl-5-(trifluoromethyl)-3-pyridyl]acetamide]
26 | 0.0001 to 10 µM | Cc1ncc(NC(=O)Cc2ccc(-c3cnc4[nH]cc(Cl)c4n3)cc2)cc1C(F)(F)F [Compound P-0079, 2-(4-(7-chloro-5H-pyrrolo[2,3-b]pyrazin-2-yl)phenyl)-N-(6-methyl-5-(trifluoromethyl)pyridin-3-yl)acetamide]
